Results reported in patent publication US20120219568A1, “EPIDITHIODIOXO[…] USES THEREOF IN TREATING CANCER” (priority 2011, published 2012).

B1: TRAIL: TNF-related apoptosis-inducing ligand; recombinant TRAIL protein expressed and purified from E. coli (protein, UniProt P50591 1-281, looked up)
Tumor necrosis factor ligand …: MAMMEVQGGPSLGQTCVLIVIFTVLLQSLCVAVTYVYFTNELKQMQDKYSKSGIACFLKEDDSYWDPNDEESMNSPCWQVKWQLRQLVRKMILRTSEETISTVQEKQQNISPLVRERGPQRVAAHITGTRGRSNTLSSPNSKNEKALGRKINSWESSRSGHSFLSNLHLRNGELVIHEKGFYYIYSQTYFRFQEEIKENTKNDKQMVQYIYKYTSYPDPILLMKSARNSCWSKDAEYGLYSIYQGGIFELKENDRIFVSVTNEHLIDMDHEASFFGAFLVG

Key:
SW620 cells [1] = test: SW620 growth with anticancer drugs, MTT assay; format: cell-based, human; conditions: for growth inhibitory effect of the drug alone at lower dose: Etoposide 1 μg/ml, Cisplatin 1 μg/ml, 5-FU 0.1 μg/ml, Doxorubicin 0.01 μg/ml; for SW620 cell sensitivity to the drug: drug alone
Method: For cell viability assay, cells were seeded in wells of 96-well plates for 2 days and then treated with different concentrations of mushroom extract fractions or purified verticillin A for 2 days. The cells were then incubated with MTT (3-(4,5-dimethylthiazol-2-yl)-2,5-diphenyltetrazolium bromide) using the MTT assay kit (ATCC, Manassas, Va.) according to the manufacturer's instructions.
Etoposie, Cisplatin, 5-FU and Doxorubicin are commonly used cancer drugs that suppress tumor cell growth through their cytotoxicity. High cytotoxicity is often associated with high dose of their drugs. Furthermore, tumor cells often develop resistance to these cytotoxic drugs. To determine whether Verticillin A can increase the efficacy of these drugs and overcome drug resistance, the effectiveness of Verticillin A combined with these 4 drugs in suppression of tumor cell growth was tested in vitro. SW620 cell sensitivity to these drugs was first measured. SW620 cells are resistant to Etoposide but sensitive to 5-FU. […] SW620 cells were next pretreated with Verticillin A, followed by treatment with Etoposide (1 μg/ml), Cisplatin (1 μg/ml), 5-FU ([…]) and Doxorubicin (0.01 μg/ml), respectively.

[2] = tested on: BNIP3, IRF8, Neurog1, p15ink4b, RUNX3; test: Expression of genes with methylated promoters; format: cell-based, human; conditions: SW620, AzadC 0-1.0 μM
Method: To determine whether verticillin A inhibits DNA methylation in other gene promoters, 4 other genes (IRF8, Neurog1, p15ink4b, RUNX3) with known promoter DNA methylation in human colon carcinoma cells were selected. SW620 cells were treated with AzadC (0-1.0 μM) and verticillin A (0-50 nM), respectively, and analyzed for the expression of BNIP3 and these 4 genes.

SW620 cells [3] = test: Exogenous ceramide and TRAIL-mediated apoptosis; format: cell-based, human
Method: FIG. 8 is a bar graph showing cell death (%) of SW620 cells incubated with C16 ceramide for 2 h followed by treatment with TRAIL overnight. The tumor cells were then stained with PI and annex V and analyzed by flow cytometry. % apoptotic cells were calculated by the formula [% annexin V^+ cells of the TRAIL-treated cells-% annexin V^+ cells of untreated cells].
A-CDase catalyzes ceramide degradation to decrease ceramide level in the cells and overexpression of A-Cdase is often associated with apoptosis resistance in tumor cells (Elojeimy S, et al. Mol Ther 2007 15(7):1259-63; Liu X, et al. Front Biosci 2008 13:2293-8; Mao C, et al. Biochim Biophys Acta 2008 1781(9):424-34; Ogretmen B. FEBS Lett 2006 580(23):5467-76; Baran Y, et al. J Biol Chem 2007 282(15):10922-34). Inhibition of A-CDase activity is often associated with increased ceramide level and enhanced apoptosis sensitivity (Liu X, et al. Front Biosci 2008 13:2293-8; Ogretmen B. FEBS Lett 2006 580(23):5467-76; White-Gilbertson S, et al. Oncogene 2009 28(8):1132-41). Next, we examined the effect of exogenous ceramide on tumor cell sensitivity to TRAIL-mediated apoptosis. SW620 cells were incubated with different concentrations of C16 ceramide for 2 h and then treated with TRAIL.

[4] = tested on: Colon carcinoma (LS114N, T84, LS174T and SW620); test: A-CDase inhibitor pre-treatment and TRAIL-induced apoptosis; format: cell-based; conditions: LCL85 pre-treatment prior to TRAIL
Method: A complementary approach was examined to determine the role of A-CDase in TRAIL resistance. Colon carcinoma (LS114N, T84, LS174T and SW620) were treated with A-CDase inhibitor LCL85 prior to TRAIL treatment and analyzed for apoptosis.

SW620 cells [5] = test: Apoptosis and TRAIL sensitization of SW620 cells (PI/annexin V flow cytometry); format: cell-based, human; conditions: SW620, agent alone
Method: Cells were seeded in wells of 96-well plates for 2 days and then treated with different concentrations of mushroom extract fractions or purified verticillin A for 2 days. The cells were stained with propidium iodide (PI) (Trevigen, Gaithersburg, Md.) or PI plus annexin V-Alex Fluor 647 (Biolegend, San Diego, Calif.) and analyzed by flow cytometry.
SW620 is a metastatic human colon carcinoma cell line that is resistant to TRAIL-induced apoptosis (Voelkel-Johnson C, et al. Mol Cancer Ther 2005 4(9):1320-7).

SW620 tumor xenograft = SW620 tumor xenograft growth in athymic mice; format: in vivo; conditions: TRAIL single agent
Method: Athymic mice were subcutaneously inoculated with human hepatoma HepG2 and colon carcinoma SW620 cells, respectively. The tumor-bearing mice were randomized into experimental groups. The control mice were given saline. The treatment group was intravenously injected with verticillin A at the doses of 1 and 2 mg/kg body weight. Tumor size was measured in 2 diameter with micrometer caliper at the indicate times to permit calculation of tumor volume, V=(a×b^2)/2, where “a” is the length and “b” is the width in millimeters. At the end of the experiment, all the animals were sacrificed, The tumor inhibitory rates were calculated using the following formula: [(mean tumor volume of control nude mice−mean tumor volume of treated nude mice)/mean tumor volume of control nude mice]×100%.
The disclosed observations indicate that verticillin A can dramatically increase TRAIL-induced tumor cell apoptosis. To determine whether these in vitro observations can be extended to enhance TRAIL-mediated tumor suppression in vivo, SW620 cells were injected subcutaneously to athymic mice, verticillin A and TRAIL, either used as single agent or in combination, were then injected to the tumor-bearing mice. Tumor growth rate were measured in different time points. Verticillin A can inhibit tumor cell growth in vitro at high dose and sensitize tumor cells to TRAIL-induced apoptosis at a low dose. […] As expected, SW620 tumors are resistant to TRAIL (Voelkel-Johnson C, et al. Mol Cancer Ther 2005 4(9):1320-7).

Row | Molecule | growth inhibitory effect of the drug alone at lower dose (SW620 cells [1]) | SW620 cell sensitivity to the drug (SW620 cells [1]) | also measured
1 | O=c1[nH]cc(F)c(=O)[nH]1 [5-FU] | minimal inhibitory effects | sensitive | –
2 | Nc1ncn([C@H]2C[C@H](O)[C@@H](CO)O2)c(=O)n1 [AzadC, reference compound] | – | – | expression levels of BNIP3, IRF8, Neurog1, p15ink4b, RUNX3 [2]: dramatically increased
3 | CCCCCCCCCCCCC/C=C/[C@@H](O)[C@H](CO)NC(=O)CCCCCCCCCCCCCCC [C16 ceramide] | – | – | tumor cell sensitivity to TRAIL-mediated apoptosis (SW620 cells [3]; SW620, C16 ceramide 2 h then TRAIL): dramatically increased the tumor cell sensitivity to TRAIL-mediated apoptosis; apoptosis-inducing activity (SW620 cells [3]; SW620, C16 ceramide alone): exhibited apoptosis-inducing activity at a dose-dependent manner
4 | N.N.[Cl][Pt][Cl] [Cisplatin] | minimal inhibitory effects | only sensitive to high doses | –
5 | COc1cccc2c1C(=O)c1c(O)c3c(c(O)c1C2=O)C[C@@](O)(C(=O)CO)C[C@@H]3O[C@H]1C[C@H](N)[C@H](O)[C@H](C)O1 [Doxorubicin] | minimal inhibitory effects | only sensitive to high doses | –
6 | COc1cc([C@@H]2c3cc4c(cc3[C@@H](O[C@@H]3O[C@@H]5CO[C@@H](C)O[C@H]5[C@H](O)[C@H]3O)[C@H]3COC(=O)[C@H]23)OCO4)cc(OC)c1O [Etoposide] | minimal inhibitory effects | resistant | –
7 | O=C(CCCCCCCCCCCCCCC[n+]1ccccc1)N[C@H](CO)[C@H](O)c1ccc([N+](=O)[O-])cc1.[Br-] [LCL85, (1R,2R)-2_N-[16-(1′-pyridinium)-hexadecanoylamino)-1-(4′-nitrophenyl)-1,3-propandiol bromide] | – | – | sensitivity of tumor cells to TRAIL-induced apoptosis [4]: significantly increased the sensitivity of tumor cells to TRAIL-induced apoptosis
8 | B1 | – | – | apoptosis induction, single agent (SW620 cells [5]): no apoptosis induction activity; SW620 tumor response to TRAIL alone (SW620 tumor xenograft): resistant
